Laboratory results taken from patent EP1863471B9, “USE OF ANGELIC ACID ESTERS AS AN ANTIPHLOGISTIC ACTIVE INGREDIENT AND ANTIPHLOGISTIC PREPARATIONS” (Miltitz Aromatics GmbH, priority 2005, dated 2006).
Read-outs that look alike come from different tables or passages of the source.

Assays:
[1] = test system: Carrageenin-induzierten Rattenpfotenödem; conditions: literature values from V. Jakovlev et al., Journal of Medicinal Plant Research 35 (1979), 125-140, corresponding test conditions, cited from earlier work
[2] = test system: Carrageenin-induzierten Rattenpfotenödem; assay: Carrageenin-induced rat paw oedema, oral administration of test substance; type: in vivo, Ratte; conditions: for ED50: oral administration, calculated from dose-dependent percent inhibition of oedema development, own tests
Text: Die antiinflammatorische Wirkung von Isobutylangelat wurde am Carrageenin-induzierten ([…]) Rattenpfotenödem getestet. Isobutylangelat wurde oral verabreicht.
Die Testbedingungen entsprachen den in der Literatur verwendeten, so dass Quervergleiche hergestellt werden konnten. (V. Jakovlev et al. in Journal of Medicinal Plant Research 35 (1979), 125-140).
Als Vergleichssubstanz in den eigenen Tests diente (-)-alpha-Bisabolol. Dosisabhängig wurde die prozentuale Hemmung der Ödementwichlung bestimmt. Daraus ließ sich der ED50 Wert errechnen.
Dosierungen von 100, 464, 1000 und 2150 mg Isobutylangelat/kg Körpergewicht wurden getestet. Die Ergebnisse wurden mit den für eine Kontrollgruppe (0,8 % Hydroxypropylmethylcellulose Gel) und zusätzlich den für die positive Kontrolle ((-)-alpha- Bisabolol) erhaltenen Werten verglichen.

## CC1=CC[C@@H]([C@]2(C)CCC(=O)C(C)(C)O2)CC1 [Bisabolonoxid]
[1]
  ED50: > 2000 mg/kg

## CC(C)=CCC[C@](C)(O)[C@@H]1CC=C(C)CC1 [(-)-alpha-Bisabolol]
[1]; listed as (-) alpha Bisabolol
  ED50: 1465 mg/kg
[2]
  ED50: 1540 mg/kg

## CC(C)=CCC[C@@](C)(O)[C@H]1CC=C(C)CC1 [(+) alpha Bisabolol]
[1]
  ED50: > 2000 mg/kg

## CC1=CCC(C2(C)CCC(O)C(C)(C)O2)CC1 (stereo not drawn) [Bisabololoxid A]
[1]
  ED50: 3164 mg/kg

## CC(C)=CCC[C@](C)(O)[C@@H]1CC=C(C)CC1 [Dragosantol]
[1]
  ED50: > 3000 mg/kg

## CC1=CCC(C2(C)CCC(C(C)(C)O)O2)CC1 (stereo not drawn) [Bisabololoxid B]
[1]
  ED50: > 2000 mg/kg

## C/C=C(/C)C(=O)OCC(C)C [Isobutylangelat]
[2]
  ED50: 2310 mg/kg
[2]; oral, doses tested 100, 464, 1000 and 2150 mg/kg body weight, read-out: dosisabhängige antiinflammatorische Wirkung, beginnend bei
  minimal effective dose: ≥ 100 mg/kg
